Measurements reported in patent publication US12616713B2, “Methods for enhancing vascular density” (priority 2016, dated 2026).
Entries after “also recorded” stand apart in the source; their conditions may differ.

Key:
[1] = system: HUVECs; experiment: Cell proliferation assay, HUVECs; assay type: cell-based, human; details: NMN 500 μM, 48 h, complete growth medium
Procedure: ECs (0.1×10^5 cells) were seeded in a 48-well plate and incubated with PBS (vehicle) or NMN (500 μM) in complete growth medium for 48 h. At the end of the incubation time, the cells were harvested and resuspended in Opti-MEM medium. Cell number was determined using flow cytometry (FACSCanto II Analyzer, BD Biosciences, USA).

[2] = system: Notch signaling; experiment: Notch target genes and NICD in VEGF- or Dll4-stimulated HAECs; assay type: cell-based, human
Procedure: Dll4 and VEGF stimulation of ECs. The ECs to be stimulated were serum-starved overnight and transferred to media containing VEGF (50 ng/mL) or to Dll4-coated plates, and then incubated for indicated time. Dll4 coating was performed as described before (Guarani et al., 2011, Nature 473, 234-238). Lyophilized recombinant Dll4 (R&D Systems) were reconstituted in PBS containing 0.1% bovine serum albumin. The culture dishes were coated with Dll4 (0.5 μg/mL) in 0.1 gelatin solution for 1 hr at 37° C.
Total mRNA was isolated from cells and tissues using TRIzol (Life Technologies). cDNAs were synthesized from 1 μg of total RNA using M-MLV reverse transcriptase (Biorad). qPCR was performed with LightCycler […] SYBR Green I Mastermix (Roche) using the LightCycler 480 System (Roche) according to the manufacturer's instructions. Relative mRNA expression levels were calculated using the ΔΔCt method.
SDS-PAGE and Western blot analysis were performed according to standard procedures and detected with the ECL detection kit (Bio-rad, Australia). […] Quantification of band intensities by densitometry was carried out using ImageJ software.

[3] = Food and water intake, body weight and composition, motor and cardiac function of treated old mice; assay type: in vivo, mouse; details: 18-month old mice, NMN 400 mg/kg/day in drinking water, two months
Text: SIRT1-iKO, SIRT1-Tg and SIRT1^STOP mice were described previously (Firestein et al., 2008, PLoS One 3, e2020; Price et al., 2012, Cell Metab 15, 675-690). Tie2Cre and Sirt1^flox/flox mice were purchased from Jackson Laboratory (Bar Harbor, ME). MCK-PGC-1α and MyogCre mice were gifts from Dr. Bruce Spiegelman (Dana Farber Cancer Center, MA) and Dr. Eric N. Olson (UT Southwestern, Dallas, TX), respectively. mT-STOP^flox/flox, Gfp mouse was generated in house by E.O.W., which consists of an allele driven by ubiquitous actin B promoter, which has loxP sites flanking membrane-targeted tandem dimer Tomato (mT) and transcriptional STOP cassette, followed by a GFP coding sequence. […] Mice were fasted for 6 h and blood glucose levels were measured by tail bleed (Accu Check Performa, Roche). Blood lactate was measured before and immediately after treadmill exercise training for 20 minutes at 15 meters/minute by tail bleed (Accutrend Plus, Roche). […] Urine was collected after a 2 h fast and analyzed for creatinine levels using a colorimetric assay kit (Cayman chemical, US) as per manufacturer's protocol. Motor coordination was assessed using the rotarod test as previously described ([…] et al., 2011, Plos One 6, e20336). […] On the 4th day, the animals were subjected to three trials on the accelerating roller (4-40 rpm in 4 min) and the time that the mice remained was recorded. […]

[4] = system: MLECs isolated from WT and ESKO mice; experiment: Transwell migration assay, MLECs; assay type: cell-based, mouse; details: WT versus ESKO MLECs, C2C12 CM, NMN 0.5 mM
[5] = system: C57BL/6J mice; experiment: Optoacoustic imaging of hindlimb soluble oxygen (sO2); assay type: in vivo, mouse; details: 20-month old mice, photoacoustic tomography
Procedure: Optoacoustic imaging. An MSOT inVision 256-TF small animal imaging system (iThera Medical GmbH, Munich, Germany) was used (Morscher et al., 2014, Photoacoustics 2, 103-110). Mice were anesthetized with isoflurane (1.5-2%, 500 ml O2/min), and body portion below chest area was shaved using depilatory cream. The animals were then placed horizontally in the imaging chamber and three-dimensional scanning of the lower portion was performed as per manufacture's protocol. Briefly, a tunable optical parametric oscillator (OPO) pumped by an Nd:YAG laser provided excitation pulses with a duration of 9 ns at wavelengths from 680 nm to 980 nm at a repetition rate of 10 Hz with a wavelength tuning speed of 10 ms and a peak pulse energy of 100 mJ at 730 nm. Ten arms of a fiber bundle provided even illumination of a ring-shaped light strip of approx. 8 mm width. For ultrasound detection, 256 toroidally focused ultrasound transducers with a center frequency of 5 MHz (60% bandwidth), organized in a concave array of 270° angular coverage and a radius of curvature of 4 cm, were used.

NC(=O)c1ccc[n+]([C@@H]2O[C@H](COP(=O)([O-])O)[C@@H](O)[C@H]2O)c1 [NMN, nicotinamide mononucleotide]
cell growth (relative cell number) [1]: promoted cell growth; also recorded: induced proliferation
NICD protein levels ([2]; VEGF- or Dll4-stimulated HAECs, NMN 0.5 mM): promoted NICD reduction
Notch target gene expression ([2]; after stimulation with VEGF (50 ng/mL) or Dll4, NMN 0.5 mM): significantly decreased
food intake, water consumption, body weights, body composition, motor learning skills and cardiac function [3]: had no effect
ability of NMN to stimulate cell migration, dependence on SIRT1 [4]: SIRT1-dependent
soluble oxygen (sO2) levels in resting muscle, greater than vehicle-treated controls [5]: 15%
